Test results as given in patent publication US9073940B2, “Tricyclic pyrazol amine derivatives” (MERCK SERONO SA, priority 2009, dated 2015).
Counter-ions that a name gives are not always drawn.

Columns and labels:
[1] = test system: AKT phosphorylation (p-AKT Ser 473) in Ramos B-lymphocyte cell line; test: Mechanistic on-target cell assay: flow cytometry of AKT phosphorylation after anti-human IGM stimulation; type: cell-based
Procedure: Mechanistic-On Target Cell Assay
The reaction was stopped by fixing the cells with Paraformaldehyde 4% (final) for 10 minutes at room temperature. Cells were washed once with Phosphate Buffer Saline (PBS), permabilized in PBS-Triton X-100 0.2% for 15 minutes at room temperature washed twice with PBS and once with PBS-4% serum. […] Cells were washed twice in PBS and resuspended in PBS. The cell suspension was passed on a FC500 flow cytometer (Beckman Coulter), gating on the IGM positive cells and measuring the AKT phosphorylation.

[2] = test system: 4 PI3K isoforms (Human recombinant GST-PI3K); test: PI3K scintillation proximity assay, best IC50 obtained with the four isoforms (alpha, beta, delta, gamma); type: biochemical; settings: best IC50 obtained with the four isoforms of PI3K; read-out: Best potency measured on the 4 PI3K isoforms

| Compound | IC50 [1] [µM] | IC50 [2] [µM] |
| --- | --- | --- |
| O=C(c1nn(CC2CCNCC2)c2c1CS(=O)(=O)c1ccccc1-2)N1CCOCC1 [Example 56, 3-(morpholin-4-ylcarbonyl)-1-(piperidin-4-ylmethyl)-1,4-dihydrothiochromeno[4,3-c]pyrazole 5,5-dioxide] | 8.15 | 0.531 |
| Nc1ccc2c(c1)-c1c(c(C(=O)N3CCOCC3)nn1-c1ccccc1)CS2(=O)=O [Example 65, 3-(Morpholin-4-ylcarbonyl)-1-phenyl-1,4-dihydrothiochromeno[4,3-c]pyrazol-8-amine 5,5-dioxide] | 0.251 | 0.368 |
| CN(C)Cc1ccc(-n2nc(C(=O)N3CCOCC3)c3c2-c2ccccc2S(=O)(=O)C3)cc1 [Example 226, N,N-Dimethyl-1-{4-[3-(morpholin-4-ylcarbonyl)-5,5-dioxidothiochromeno[4,3-c]pyrazol-1(4H)-yl]phenyl}methanamine] | 0.492 | 0.043 |
| COCCN1CCC[C@H](n2nc(C(=O)N3CCOCC3)c3c2-c2ccccc2S(=O)(=O)C3)C1 (single isomer, unassigned) [Example 346, 1-[1-(2-methoxyethyl)piperidin-3-yl]-3-(morpholin-4-ylcarbonyl)-1,4-dihydrothiochromeno[4,3-c]pyrazole 5,5-dioxide] | 0.128 | 0.04 |
| O=C(c1nn([C@H]2CCCN(CCF)C2)c2c1CS(=O)(=O)c1ncccc1-2)N1CCOCC1 [Example 380] | 0.32 |  |
| O=C(c1nn(C2CCCC2)c2c1CS(=O)(=O)c1ccccc1-2)N1CCOCC1 [Example 73, 1-Cyclopentyl-3-(morpholin-4-ylcarbonyl)-1,4-dihydrothiochromeno[4,3-c]pyrazole 5,5-dioxide] | 0.317 | 0.205 |
| O=C(c1nn([C@H]2CCCN(CCN3CCOCC3)C2)c2c1CS(=O)(=O)c1c(F)cccc1-2)N1CCOCC1 (single isomer, unassigned) [Example 350, 6-fluoro-3-(morpholin-4-ylcarbonyl)-1-[1-(2-morpholin-4-ylethyl)piperidin-3-yl]-1,4-dihydrothiochromeno[4,3-c]pyrazole 5,5-dioxide hydrochloride salt] | 0.04 | 0.016 |
| O=C(c1nn(-c2ccccc2)c2c1CS(=O)(=O)c1c(F)cccc1-2)N1CCOCC1 [Example 15, 6-fluoro-3-(morpholin-4-ylcarbonyl)-1-phenyl-1,4-dihydrothiochromeno[4,3-c]pyrazole 5,5-dioxide] | 0.364 | 0.424 |
| O=C(c1nn(-c2ccccc2)c2c1CS(=O)(=O)c1ccccc1-2)N1CCOCC1 [Example 33, 3-(morpholin-4-ylcarbonyl)-1-phenyl-1,4-dihydrothiochromeno[4,3-c]pyrazole 5,5-dioxide] | 0.706 | 0.244 |
| O=C(c1nn(C2CCCCC2)c2c1CS(=O)(=O)c1ccccc1-2)N1CCOCC1 [Example 12, 1-cyclohexyl-3-(morpholin-4-ylcarbonyl)-1,4-dihydrothiochromeno[4,3-c]pyrazole 5,5-dioxide] | 0.167 | 0.136 |
| Cc1ccc(-n2nc(C(=O)N3CCOCC3)c3c2-c2ccccc2S(=O)(=O)C3)cc1 [Example 7, 1-(4-methylphenyl)-3-(morpholin-4-ylcarbonyl)-1,4-dihydrothiochromeno[4,3-c]pyrazole 5,5-dioxide] | 0.976 | 0.69 |
| 3-(morpholin-4-ylcarbonyl)-1-[1-(2-morpholin-4-ylethyl)piperidin-3-yl]-1,4-dihydrothiochromeno[4,3-c]pyrazole 5,5-dioxide [Example 345] | 0.068 | 0.016 |
| O=C(c1nn(-c2ccc(CN3CCOCC3)cc2)c2c1CS(=O)(=O)c1ccccc1-2)N1CCOCC1 [Example 137] | 0.3 |  |
| CC(C)(C)OC(=O)N1CCC(Cn2nc(C(=O)N3CCOCC3)c3c2-c2ccccc2S(=O)(=O)C3)CC1 [Example 43, tert-butyl 4-{[3-(morpholin-4-ylcarbonyl)-5,5-dioxidothiochromeno[4,3-c]pyrazol-1(4H)-yl]methyl}piperidine-1-carboxylate] | 0.534 |  |
| COCCCN1CCCC(n2nc(C(=O)N3CCOCC3)c3c2-c2ccccc2S(=O)(=O)C3)CC1 (stereo not shown) [Example 258, 1-[1-(3-Methoxypropyl)azepan-4-yl]-3-(morpholin-4-ylcarbonyl)-1,4-dihydrothiochromeno[4,3-c]pyrazole 5,5-dioxide] |  | 0.438 |
| O=C(c1nn(-c2cccc(CN3CCC(F)CC3)c2)c2c1CS(=O)(=O)c1ccccc1-2)N1CCOCC1 [Example 242, 1-{3-[(4-Fluoropiperidin-1-yl)methyl]phenyl}-3-(morpholin-4-ylcarbonyl)-1,4-dihydrothiochromeno[4,3-c]pyrazole 5,5-dioxide] |  | 0.437 |

| Compound | IC50 [1] [µM] | IC50 [2] [µM] |
| --- | --- | --- |
| COc1cccc2c1S(=O)(=O)Cc1c(C(=O)N3CCOCC3)nn([C@H]3CCCN(CCN4CC(F)(F)C4)C3)c1-2 (single isomer, unassigned) [Example 442, 1-{1-[2-(3,3-difluoroazetidin-1-yl)ethyl]piperidin-3-yl}-6-methoxy-3-(morpholin-4-ylcarbonyl)-1,4-dihydrothiochromeno[4,3-c]pyrazole 5,5-dioxide] |  | 0.04 |
| O=C(c1nn(C2CCC(F)(F)CC2)c2c1CS(=O)(=O)c1ccccc1-2)N1CCOCC1 [Example 170, 1-(4,4-Difluorocyclohexyl)-3-(morpholin-4-ylcarbonyl)-1,4-dihydrothiochromeno[4,3-c]pyrazole 5,5-dioxide] |  | 0.386 |
| Nc1ncc(-c2cccc(-n3nc(C(=O)N4CCOCC4)c4c3-c3ccccc3S(=O)(=O)C4)c2)cn1 [Example 186, 5-{3-[3-(Morpholin-4-ylcarbonyl)-5,5-dioxidothiochromeno[4,3-c]pyrazol-1 (4H)-yl]phenyl}pyrimidin-2-amine] |  | 0.454 |
| O=C(c1nn(-c2ccccc2)c2c1CS(=O)(=O)c1cc(C(F)(F)F)ccc1-2)N1CCOCC1 [Example 158, 3-(Morpholin-4-ylcarbonyl)-1-phenyl-7-(trifluoromethyl)-1,4-dihydrothiochromeno[4,3-c]pyrazole 5,5-dioxide] |  | 3.06 |
| O=C(c1nn(-c2ccccc2)c2c1C(CC1CC1)S(=O)(=O)c1ccccc1-2)N1CCOCC1 (stereo not shown) [Example 58, 4-(cyclopropylmethyl)-3-(morpholin-4-ylcarbonyl)-1-phenyl-1,4-dihydrothiochromeno[4,3-c]pyrazole 5,5-dioxide] |  | 3.9 |
| CN1CCN(Cc2ccc(-n3nc(C(=O)N4CCOCC4)c4c3-c3ccccc3S(=O)(=O)C4)cn2)CC1 [Example 252, 1-{6-[(4-Methylpiperazin-1-yl)methyl]pyridin-3-yl}-3-(morpholin-4-ylcarbonyl)-1,4-dihydrothiochromeno[4,3-c]pyrazole 5,5-dioxide] |  | 0.335 |
| CC(=O)NCCN1CCC[C@H](n2nc(C(=O)N3CCOCC3)c3c2-c2ccccc2S(=O)(=O)C3)C1 (stereo in doubt) [Example 444, N-(2-{3-[3-(morpholin-4-ylcarbonyl)-5,5-dioxidothiochromeno[4,3-c]pyrazol-1(4H)-yl]piperidin-1-yl}ethyl)acetamide] |  | 0.105 |
| O=C(c1nn(-c2cccnc2)c2c1CS(=O)(=O)c1ccccc1-2)N1CCOCC1 [Example 88, 3-(Morpholin-4-ylcarbonyl)-1-pyridin-3-yl-1,4-dihydrothiochromeno[4,3-c]pyrazole 5,5-dioxide] |  | 1.13 |
| COc1ccc(C(=O)Cn2nc(C(=O)N3CCOCC3)c3c2-c2ccccc2S(=O)(=O)C3)cc1 [Example 317] |  | 14.5 |
| O=C(c1nn(C2CCCN(c3ccccc3)C2)c2c1CS(=O)(=O)c1ccccc1-2)N1CCOCC1 (stereo not shown) [Example 218, 3-(Morpholin-4-ylcarbonyl)-1-(1-phenylpiperidin-3-yl)-1,4-dihydrothiochromeno[4,3-c]pyrazole 5,5-dioxide] |  | 0.468 |
| O=C(c1nn(C2CCN(CCn3ccnc3)C2)c2c1CS(=O)(=O)c1ccccc1-2)N1CCOCC1 (stereo not shown) [Example 288, 1-{1-[2-(1H-Imidazol-1-yl)ethyl]pyrrolidin-3-yl}-3-(morpholin-4-ylcarbonyl)-1,4-dihydrothiochromeno[4,3-c]pyrazole 5,5-dioxide] |  | 0.166 |
| O=C(c1nn([C@H]2CCCN(CCN3CCOCC3)C2)c2c1CS(=O)(=O)c1c(Cl)cccc1-2)N1CCOCC1 (single isomer, unassigned) [Example 386, 6-chloro-3-(morpholin-4-ylcarbonyl)-1-[1-(2-morpholin-4-ylethyl)piperidin-3-yl]-1,4-dihydrothiochromeno[4,3-c]pyrazole 5,5-dioxide] |  | 0.03 |
| O=C(c1nn(C2CCCN(CCN3CCCC(F)(F)C3)C2)c2c1CS(=O)(=O)c1ccccc1-2)N1CCOCC1 (stereo not shown) [Example 284, 1-{1-[2-(3,3-Difluoropiperidin-1-yl)ethyl]piperidin-3-yl}-3-(morpholin-4-ylcarbonyl)-1,4-dihydrothiochromeno[4,3-c]pyrazole 5,5-dioxide] |  | 0.083 |
| CN1CCCC(N2CCC[C@H](n3nc(C(=O)N4CCOCC4)c4c3-c3ccccc3S(=O)(=O)C4)C2)C1 (stereo in doubt) [Example 459, 1-[1′-methyl-1,3′-bipiperidin-3-yl]-3-(morpholin-4-ylcarbonyl)-1,4-dihydrothiochromeno[4,3-c]pyrazole 5,5-dioxide] |  | 0.018 |
| CC(=O)Nc1cccc2c1S(=O)(=O)Cc1c(C(=O)N3CCOCC3)nn(-c3ccccc3)c1-2 [Example 322] |  | 9.88 |
| O=C(c1nn(C2CCN(CCN3CC(F)(F)C3)C2)c2c1CS(=O)(=O)c1ccccc1-2)N1CCOCC1 (stereo not shown) [Example 311, 1-{1-[2-(3,3-Difluoroazetidin-1-yl)ethyl]pyrrolidin-3-yl}-3-(morpholin-4-ylcarbonyl)-1,4-dihydrothiochromeno[4,3-c]pyrazole 5,5-dioxide] |  | 0.156 |
